Ends that are not written are not given here.
What was measured:
[1] = target: T1, Aβ42 oligomers (LMW Aβo) (Homo sapiens, UniProt P05067); experiment: Indirect ELISA, binding of immobilized BP/CP to biotinylated LMW Aβ42 oligomers
T1 construct: Biotinyl-Amyloid b pr otein ( 1-42); purchased Bachem H-5642; host or cells: chemical synthesis
Protocol: (§1) Synthetic Aβ40, Aβ42, and their biotinylated forms were obtained as lyophilized samples from Bachem (Aβ40, b‐Aβ40, Aβ42 and b‐Aβ42). Briefly, peptides were solubilized in 1,1,1,3,3,3‐hexafluoro‐2‐propanol to prevent oligomerization, then evaporated overnight under a chemical fume hood, and stored as a dried peptide film at −80°C until use, as previously described (Stine et al., [2003]). Aβ monomers (Aβm) were prepared extemporaneously by first dissolving the peptide film in 2 mM dimethyl sulfoxide (DMSO) and vortexing for 1 min. Peptides were further diluted to 100 μM in ice‐cold PBS. Diluted peptides were subsequently sonicated for 20 min at 4°C, centrifuged at 10,000g for 3 min, then the supernatant was collected and concentration of Aβm measured using a micro BCA protein assay kit, prior to being aliquoted and stored at −20°C until use. […]
(§2) The binding of CP or BP to synthetic biotinylated LMW Aβo (oligomerized at 4°C for 24 h) or Aβ40 monomers (Aβm) was determined by indirect ELISA in which CP or BP were used as the capture antigens and the biotin tag of the biotinylated Aβ peptides for the detection. […] Absorbance was successively measured at 450 and 540 nm with a TECAN microplate reader and optical density values at 540 nm were subtracted from the ones at 450 nm to correct for optical imperfections of the plate. […]

[2] = target: T2, Aβo-VEGF interaction (recombinant human VEGF165) (Homo sapiens, UniProt P05067); experiment: Competitive ELISA, Aβo binding to immobilized VEGF165; assay type: biochemical
T2 construct: Biotinyl-Amyloid b pr otein ( 1-42); purchased R&D Systems (VEGF165); Bachem (biotinyl-Aβ 1-42) 293-VE (VEGF165); H-5642 (biotinyl-Aβ 1-42)
Protocol: Data were expressed as mean ± SEM in ThT, Western blotting, synaptic targeting experiments and electrophysiological recordings (Table S2). Normality and variance homoscedasticity were assessed using descriptive analysis and appropriate tests. Sample size (n) was determined based on previous studies from the literature and pilot experiments; n refers to the number of ELISA, ThT or Western Blotting experiments, to coverslips or culture wells for hippocampal neuron cultures, and to mice per condition or per genotype for electrophysiological experiments. […] For the analysis of Aβ‐BP interaction, K D was determined by fitting the data to a two‐parameter saturation curve. […] For quantitative assessment of Aβ aggregation, Aβ expression level and the percentage of synapses colocalized with Aβ, data were compared for statistical significance between groups using a Kruskal–Wallis and a Dunn's post hoc test with Holm correction (R software) (Table S3). For electrophysiological data, statistical analysis between treatments and/or genotypes were carried out using a Kruskal–Wallis followed by a Dunn's post hoc test to compare differences in fEPSP slopes (Table S3). […]
Competi tive ELISA experi ments were performed to anal yse the ability of the BP to impede bi oti nyl ated LMW Aβo bi ndi ng to VEGF. […] After adding the stop solution, absorbance was measured using a TECAN microplate reader.

[3] = system: hippocampal neuron cultures (Aβo binding to PSD95/Bassoon synapses); experiment: Synaptic targeting in hippocampal neurons by Aβ oligomerized with peptide; assay type: cell-based, C57Bl/6JRj mouse; conditions: Aβ oligomerized 2 h in presence of peptide; 0.5 μM, 30 min
Protocol: Primary hippocampal neuron cultures were prepared from E17‐18 C57Bl/6JRj mice. Briefly, hippocampi were removed and collected in Hank's buffered salt solution (HBSS), digested in HBSS supplemented with trypsin (0.25% v/v) for 10 min at 37°C and then rinsed in HBSS and BSA 0.2%. Next, hippocampi were triturated in Neurobasal medium without phenol red, supplemented with L‐glutamine (2 mM), 2% B27, 1% penicillin/streptomycin (P/S) (10,000 U/mL). Hippocampal neurons were then plated onto poly‐L‐lysine coated coverslips (0.5 mg/mL) at a low density (15 × 10^3 cells/cm^2) for synaptic targeting experiments. Neurons were cultured in supplemented Neurobasal medium at 37°C under 5% CO2, one‐half of the medium being changed once a week. […]
Treated hippocampal neuron cultures were fixed for 4 min in 4% paraformaldehyde (PFA) in 0.1 M phosphate buffer at RT, prior to immunostaining. After a blocking step in non‐permeabilizing condition (PBS, 1% BSA) surface‐bound biotinylated Aβ was detected with fluorescently tagged streptavidin incubated for 3 h at RT. […]
Subsequent analyses of hippocampal synapse staining were performed by a blinded investigator with Icy software. […] Biotinylated Aβ clusters were quantified in each ROI in collapsed Z‐stacks. […]

[4] = system: Aβ42 oligomerization (monomers, LMW and HMW Aβo); experiment: Western blot (6E10) of soluble Aβ species formed in presence of peptide; assay type: biochemical; conditions: equimolar peptide, 15 μM Aβm, 37°C
Protocol: as §1
After a 45 min blocking step in Tris‐buffered saline, 0.1% Tween, pH 7.6, 5% milk, membranes were immunoblotted overnight at 4°C with dedicated antibodies (Table S1) diluted in Tris‐buffered saline, 0.1% Tween, pH 7.6, with 2% milk. […] Proteins were visualized with an ECL detection system and band intensities quantified using a densitometric analysis with ImageJ software.

[5] = system: Aβ42 fibrils; experiment: Transmission electron microscopy of Aβ aggregates; assay type: biochemical
Protocol: Synthetic Aβ40, Aβ42, and their biotinylated forms were obtained as lyophilized samples from Bachem (Aβ40, b‐Aβ40, Aβ42 and b‐Aβ42). Briefly, peptides were solubilized in 1,1,1,3,3,3‐hexafluoro‐2‐propanol to prevent oligomerization, then evaporated overnight under a chemical fume hood, and stored as a dried peptide film at −80°C until use, as previously described (Stine et al., [2003]). Aβ monomers (Aβm) were prepared extemporaneously by first dissolving the peptide film in 2 mM dimethyl sulfoxide (DMSO) and vortexing for 1 min. Peptides were further diluted to 100 μM in ice‐cold PBS. Diluted peptides were subsequently sonicated for 20 min at 4°C, centrifuged at 10,000g for 3 min, then the supernatant was collected and concentration of Aβm measured using a micro BCA protein assay kit, prior to being aliquoted and stored at −20°C until use. […] Aβ preparations were used either directly as monomers (for Aβ40 Elisa assays and ThT experiments) or were subjected to different oligomerization states, enriched in high molecular weight Aβ42 oligomers (HMW Aβo) or in low molecular weight Aβ42 oligomers (LMW Aβo). For Aβ preparations enriched in Aβ fibrils, monomeric Aβ42 peptides (Aβm) were incubated at a concentration of either 30 μM or 15 μM during 24 h at 37°C. For HMW Aβo, Aβm was incubated at 15 μM for 2 h at 37°C. […]

[6] = system: SC-CA1 synapses in WT hippocampal slices; experiment: Paired-pulse facilitation in WT hippocampal slices; assay type: cell-based, wild-type mouse; conditions: 50 ms, after TBS
Protocol: (§4) Local field potential recordings (LFP) were performed on acute coronal hippocampal slices from 8‐month‐old wild type and transgenic heterozygous male APP/PS1‐21 mice to measure baseline synaptic response and long‐term potentiation (LTP) of Schaffer collaterals to CA1 (SC‐CA1) pyramidal cell synapses. Hippocampal slices (400 μm thick) were cut using a vibratome (Leica VT1200S) and incubated at room temperature in artificial cerebrospinal fluid (ACSF) containing (in mM): 124 NaCl, 10 glucose, 1.25 NaH2PO4, 2.5 KCl, 26 NaHCO3, 1.3 MgCl2, and 2.5 CaCl2, bubbled with 95% O2 and 5% CO2, pH 7.4 for 1 h prior to recording. Field excitatory postsynaptic potentials (fEPSPs) were recorded extracellularly in stratum radiatum of CA1 region of the dorsal hippocampus in presence of gamma‐aminobutyric acid (GABA)‐A receptor antagonist picrotoxin (100 μM). Electrical stimulation was realized with a bipolar tungsten electrode placed in CA1 stratum radiatum and fEPSPs were measured using borosilicate glass microelectrodes (~1–3 MΩ) filled with ACSF. […] LFP were sampled at 10 kHz and fEPSPs initial slope was computed to quantify synaptic responses. […] For quantification, the slope of the synaptic response to the second stimulation was divided by that of the first response.

[7] = system: VEGFR2 phosphorylation (Tyr1175) in HUVEC; experiment: VEGFR2 phosphorylation Western blot in HUVEC; assay type: cell-based, human; conditions: 0.5 μM, 5 min
Protocol: Human um bi l i cal v ei n endothel i al C ell s (HUVEC ) were obtai ned from Pr omocel l and cul tured
in 6 cm Petri di s hes pre-coated wi th col l ag en I at 5 µ g /cm2 in 20 mM glacial acetic acid. HUVEC
were cultured at 7000 cells/cm2 in endothelial cell growth medium MV2 heparin free
(Promocel l ) s uppl emented wi th 1% P/S unti l reac hi ng 80% c onfl uency , an d were us ed for u p
0.5 µ M. After treatments, HUVEC were washed a nd i ncubated i n 6 00 mL of l ysi s buf fer (Tri s HCL 25 mM, EDTA 5 mM, DOC 0.5 mM, NP40 1%, SDS 0.1%, NaCl 150 mM), suppl emented with cOmplete protease inhibitor cocktail 2%, Benzonase 0.02%, Orthovanadate 2%, and phos phat as e i nhi bi t ors 2% for 10 mi n at 4°C .
For immunoblotting of HUVEC cel l l y s ates , 20 µg of proteins were separated on 3-8% g radi ent SDS-PAGE gels at 120V, with cathode and ano de contai ni ng XT Try ci ne buffe r. G el s w ere transferred on 0.2 µm nitrocellulose membranes at 120V for 2h in 5% methanol, Tris-Glycine buffer and immunoblotted.
were used in combination with approp riate secondary antibodies (Table S1)

[8] = target: T3, Aβ40 monomers (Aβm) (Homo sapiens, UniProt P05067); experiment: Indirect ELISA, binding of immobilized BP/CP to biotinylated Aβ40 monomers; conditions: Aβm 0 to 10 μg/mL
T3 construct: Biotinyl-Amyloid b pr otein ( 1-40); purchased Bachem H-5914; host or cells: chemical synthesis
Protocol: as §1, §2

[9] = system: Aβ42 monomers (Aβm), fibrillation; experiment: Thioflavin T aggregation assay; assay type: biochemical; conditions: increasing concentrations 0.5 to 15 μM, 15 μM Aβm, 24 h
Protocol: as §1
Thioflavin‐T (ThT) assays were performed in black polystyrene 384‐well plates using a Tecan microplate reader with a set of excitation/emission wavelengths of 450/490 nm. […] The plate was sealed with a transparent plastic film and incubated at 37°C prior to fluorescence measurement. ThT fluorescence intensity was monitored every 5 min over 24 h at 37°C without agitation. Three replicates per condition were measured.
Data were expressed as mean ± SEM in ThT, Western blotting, synaptic targeting experiments and electrophysiological recordings (Table S2). […]

[10] = system: SC-CA1 synapses in APP/PS1 hippocampal slices; experiment: LTP (TBS) in APP/PS1 hippocampal slices; assay type: cell-based, APP/PS1-21 mouse
Protocol: (§3) Data were expressed as mean ± SEM in ThT, Western blotting, synaptic targeting experiments and electrophysiological recordings (Table S2). Normality and variance homoscedasticity were assessed using descriptive analysis and appropriate tests. Sample size (n) was determined based on previous studies from the literature and pilot experiments; n refers to the number of ELISA, ThT or Western Blotting experiments, to coverslips or culture wells for hippocampal neuron cultures, and to mice per condition or per genotype for electrophysiological experiments. […] For the analysis of Aβ‐BP interaction, K D was determined by fitting the data to a two‐parameter saturation curve. […] For quantitative assessment of Aβ aggregation, Aβ expression level and the percentage of synapses colocalized with Aβ, data were compared for statistical significance between groups using a Kruskal–Wallis and a Dunn's post hoc test with Holm correction (R software) (Table S3). For electrophysiological data, statistical analysis between treatments and/or genotypes were carried out using a Kruskal–Wallis followed by a Dunn's post hoc test to compare differences in fEPSP slopes (Table S3).

[11] = system: SC-CA1 synapses in WT hippocampal slices; experiment: LTP (TBS) in WT hippocampal slices; assay type: cell-based, wild-type mouse
Protocol: as §3

[12] = system: SC-CA1 synapses in APP/PS1 hippocampal slices; experiment: Paired-pulse facilitation in APP/PS1 hippocampal slices; assay type: cell-based, APP/PS1-21 mouse; conditions: 50 ms, after TBS
Protocol: as §4

[13] = system: synapses / LTP impaired by Aβo; conditions: ref Martin et al., 2021; cited from earlier work
[14] = 0.5 μM, at least 40 min before TBS

T1 sequence (P05067 672-713 limits assumed): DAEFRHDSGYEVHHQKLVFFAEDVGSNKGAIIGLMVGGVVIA
T2 sequence (P05067 672-713 limits assumed): as above
T3 sequence (P05067 672-711 limits assumed): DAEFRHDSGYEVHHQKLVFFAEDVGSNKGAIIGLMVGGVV

KRKKSRYKSWSVYVG [BP]
Kd [1]: 12 nM | EC50 ([2]; Aβo 2.1 μM preincubated with BP 1 h RT, three-parameter sigmoidal fit, n = 5-6): 350 nM

NDYKDDDDKGAAA [CP]
Binding of Aβo to immobilized peptide ([1]; ELISA, Aβo 0 to 10 μg/mL): failed to bind to the CP even at the highest concentration | Aβo binding to neuron surface and synapses [3]: strong binding to hippocampal neuron surface | Effect on proportion of Aβ species [4]: did not change the proportion of Aβo species | Morphology of Aβ aggregates by TEM ([5]; Aβ 30 μM + equimolar peptide, 24 h at 37°C, n = 4): typical fibrillary structures | Structures formed by peptide alone, TEM ([5]; peptide alone, no Aβ): do not show any detectable 3D structures | Effect on paired-pulse ratio [6]: no differences were detected | Effect on basal VEGFR2 phosphorylation [7]: did not affect basal VEGFR2 phosphorylation level | Binding of Aβm to immobilized peptide [8]: failed to bind to the CP even at the highest concentration | Effect on ThT fluorescence [9]: had no impact on ThT fluorescence | Effect on Aβo-VEGF interaction ([2]; peptide preincubated with Aβo 2.1 μM): did not affect Aβo binding | Effect on LTP in APP/PS1 slices [10, 14]: failed to restore LTP | LTP amplitude, fEPSP slope 55–60 min after TBS ([10]; peptide 0.5 μM at least 40 min before TBS, APP/PS1 slices, 8-month-old male, mean ± SEM, n = 7 mice): 119 ± 9.1% | Effect on LTP in WT slices [11, 14]: neither CP nor the BP impacted LTP responses | LTP amplitude, fEPSP slope 55–60 min after TBS ([11]; peptide 0.5 μM at least 40 min before TBS, WT slices, 8-month-old male, mean ± SEM, n = 6 mice): 191.4 ± 18.3% | Effect on paired-pulse ratio [12]: no differences were detected

VEGF
Protection of synapses / LTP from Aβo [13]: ability to preserve synapses from dysfunction and LTP deficits caused by Aβo

Source: PMC10497828, “A novel peptide derived from vascular endothelial growth factor prevents amyloid beta aggregation and toxicity” (Aging Cell, 2023)
